The results in this text go back to ChEMBL document CHEMBL1126373, “HIV and reverse transcriptase inhibition by tannins” (Bioorg Med Chem Lett, 1992).

Data set [1] addresses Human immunodeficiency virus type 1 reverse transcriptase (Human immunodeficiency virus 1) (UniProt Q72547). Nature of the data set: Inhibition against HIV- reverse transcriptase in cell culture at 20 ug/mL.
Data set [2] has as its system Human immunodeficiency virus 1. Nature of the data set: Therapeutic index was determined. The following applies: read-out: Therapeutic index.
Data set [3] concerns Human immunodeficiency virus 1. Nature of the data set: Anti-HIV activity in cell culture assay expressed as EC50 values. As to conditions: Human immunodeficiency virus 1. In kind it is functional, organism-based.
Data set [4] concerns Human immunodeficiency virus 1. Nature of the data set: Inhibition against HIV replication in cell culture at 20 ug/mL. In kind it is functional. The following applies: Human immunodeficiency virus 1.
Data set [5] relates to Human immunodeficiency virus 1. Nature of the data set: Anti-HIV activity in cell culture assay expressed as IC50 values. In kind it is functional, organism-based. As to conditions: Human immunodeficiency virus 1.

Each structure is given as a SMILES string.

One may read the inhibition as the change of the read-out against control, counted positive when it falls. A word on the EC50: it is the concentration at which the effect is half-maximal. Read a high EC50 as a less potent agent. Usually IC50 stands for the concentration needed to halve the response being measured. `O=C1OCC2OC(=O)c3cc(O)c(O)c(O)c3-c3c(O)c(O)c(O)c4c3C(=O)OC(C2OC(=O)c2cc(O)c(O)c(O)c2-c2c1cc(O)c(O)c2O)C1OC(=O)c2c-4c(O)c(O)c(O)c2[C@@H]1[C@@]1(O)O[C@@H](CO)[C@@H](O)[C@H]1O` (stereo not given in full) gave an inhibition in data set [1] of 27%. Besides, in data set [2], the selectivity ratio worked out at 0.4. In data set [3], this compound displayed an EC50 of 35 µM. Also, in data set [4], the inhibition at 20 µg/mL was found to be 35%. Also, in data set [5], the half-maximal inhibitory concentration (IC50) was 15 µM.
The matching figures for `O=C(O[C@@H]1O[C@@H]2COC(=O)c3cc(O)c(O)c(O)c3-c3c(cc(O)c(O)c3O)C(=O)O[C@H]([C@H]1OC(=O)c1cc(O)c(O)c(O)c1)[C@@H]2OC(=O)c1cc(O)c(O)c(O)c1)c1cc(O)c(O)c(O)c1` [PUNICAFOLIN]: 0%, 1.8, 19 µM, 60% and 34 µM.
`Oc1cc(O)c2c(c1)O[C@H](c1ccc(O)c(O)c1)[C@H](O)[C@H]2c1c(O)cc(O)c2c1O[C@H](c1ccc(O)c(O)c1)[C@H](O)[C@H]2c1c(O)cc(O)c2c1O[C@H](c1ccc(O)c(O)c1)[C@H](O)C2` [PROCYANIDIN C1] returned an inhibition in data set [1] of 18%. Moreover, the selectivity ratio in data set [2] was > 1. The EC50 in data set [3] is > 25 µM. In data set [4], this compound displayed an inhibition at 20 µg/mL of 68%. Further, the IC50 in data set [5] is > 25 µM.
With `O=C(OC[C@H]1O[C@@H](OC(=O)c2cc(O)c(O)c(O)c2)[C@H](OC(=O)c2cc(O)c(O)c(O)c2)[C@@H](O)[C@@H]1O)c1cc(O)c(O)c(O)c1`, the inhibition in data set [1] was found to be 16%. In addition, the selectivity ratio in data set [2] is 0.4. The concentration for a half-maximal effect (EC50) in data set [3] is 50 µM. In data set [4], this compound gave an inhibition at 20 µg/mL of 20%. The same compound showed an IC50 in data set [5] of 19 µM.
For `CC1(C)CC[C@]2(C(=O)O)CC[C@]3(C)C(=CCC4[C@@]5(C)C[C@@H](O)[C@@H]6OC(=O)c7cc(O)c(O)c(O)c7-c7c(cc(O)c(O)c7O)C(=O)OC[C@@]6(CO)C5CC[C@]43C)C2C1` (stereo not given in full), in that order: 18%, 1, 40 µM, 23% and 40 µM.
Regarding `O=C1OCC2OC(=O)c3cc(O)c(O)c(O)c3-c3c(O)c(O)c(O)c4c3C(=O)OC(C2OC(=O)c2cc(O)c(O)c(O)c2-c2c1cc(O)c(O)c2O)C1OC(=O)c2c-4c(O)c(O)c(O)c2[C@@H]1c1c(O)cc(O)c2c1O[C@H](c1ccc(O)c(O)c1)[C@@H](O)C2` (stereo not given in full), the inhibition in data set [1] was found to be 24%. Further, in data set [2], the selectivity ratio turned out to be 3.8. The same compound gave an EC50 in data set [3] of 4 µM. This compound came in with an inhibition at 20 µg/mL in data set [4] of 88%. In data set [5], this compound displayed an IC50 of 15 µM.
For `O=C(OC[C@H]1OC(O)[C@@](O)(COC(=O)c2cc(O)c(O)c(O)c2)[C@@H]1O)c1cc(O)c(O)c(O)c1` (stereo not given in full) [HAMAMELITANNIN], in that order: 16%, 0.9, 50 µM, 40% and 45 µM.
The compound `O=C(O[C@@H]1O[C@@H]2COC(=O)c3cc(O)c(O)c(O)c3-c3c(cc(O)c(O)c3O)C(=O)O[C@H]([C@H]1O)[C@@H]2O)c1cc(O)c(O)c(O)c1` [CORILAGIN] gave an inhibition in data set [1] of 57%. Moreover, the selectivity ratio in data set [2] was found to be 1. Further, the response in data set [3] was half-maximal at 15 µM (EC50). 20 µg/mL produced 90% inhibition in data set [4]. In data set [5], this compound had a half-maximal inhibitory concentration (IC50) of 15 µM.
Turning to `O=C1OCC2OC(=O)c3cc(O)c(O)c(O)c3-c3c(O)c(O)c(O)c4c3C(=O)OC(C2OC(=O)c2cc(O)c(O)c(O)c2-c2c1cc(O)c(O)c2O)C1OC(=O)c2c-4c(O)c(O)c(O)c2[C@@H]1O` (stereo not given in full), the inhibition in data set [1] was 40%. The selectivity ratio in data set [2] amounted to 1. In data set [3], this compound registered an EC50 of 15 µM. The compound further gave an inhibition at 20 µg/mL in data set [4] of 90%. The compound also showed an IC50 in data set [5] of 15 µM.
Consider `O=C1O[C@H]2[C@@H]3OC(=O)c4cc(O)c(O)c(O)c4-c4c(cc(O)c(O)c4O)C(=O)OC[C@H]2O[C@@H](OC(=O)c2cc(O)c(O)c(O)c2)[C@@H]3OC(=O)c2cc(O)c(O)c3c2[C@@H]2C1=CC(=O)C(O)(O)C2(O)O3` (stereo not given in full), for which the inhibition in data set [1] turned out to be 15%. Moreover, the selectivity ratio in data set [2] came out at 1.2. Also, in data set [3], the EC50 worked out at 12 µM. In data set [4], this compound gave an inhibition at 20 µg/mL of 92%. In data set [5], this compound displayed an IC50 of 14 µM.
`O=C(O[C@@H]1O[C@H]2COC(=O)c3cc(O)c(O)c(O)c3-c3c(O)c(O)c(O)c(Oc4cc(C(=O)O[C@H]5O[C@H]6COC(=O)c7cc(O)c(O)c(O)c7-c7c(cc(O)c(O)c7O)C(=O)O[C@H]6[C@@H]6OC(=O)c7cc(O)c(O)c(O)c7-c7c(cc(O)c(O)c7O)C(=O)O[C@H]56)cc(O)c4O)c3C(=O)O[C@H]2[C@@H]2OC(=O)c3cc(O)c(O)c(O)c3-c3c(cc(O)c(O)c3O)C(=O)O[C@H]12)c1cc(O)c(O)c(O)c1` displayed an inhibition in data set [1] of 34%. For the same compound, the selectivity ratio in data set [2] stood at 1.4. For the same compound, in data set [3], the EC50 came to 15 µM. This compound had an inhibition at 20 µg/mL in data set [4] of 38%. In data set [5], half-maximal inhibition (IC50) required 21 µM.
For `O=C(O[C@H]1[C@H](O)C[C@](OC(=O)c2cc(O)c(O)c(O)c2)(C(=O)O)C[C@H]1O)c1cc(O)c(O)c(O)c1`, in data set [1], the inhibition was 0%. The selectivity ratio in data set [2] was found to be 1.8. Besides, a half-maximal effect in data set [3] (EC50) was put at 25 µM. The compound further yielded an inhibition at 20 µg/mL in data set [4] of 65%. The half-maximal inhibitory concentration (IC50) in data set [5] came to 45 µM.
The matching figures for `O=C1OCC2OC(=O)c3cc(O)c(O)c(O)c3-c3c(O)c(O)c(O)c4c3C(=O)OC(C2OC(=O)c2cc(O)c(O)c(O)c2-c2c1cc(O)c(O)c2O)C1OC(=O)C2C4=C(O)C(=O)C23Oc2cc(O)c4c(c2[C@H]13)O[C@H](c1ccc(O)c(O)c1)[C@@H](O)C4` (stereo not given in full): 23%, 3.8, 4 µM, 89% and 15 µM.
Take `O=C1O[C@H]2[C@H](O)[C@@H](OC(=O)c3cc(O)c(O)c4c3[C@@H]3C1=CC(=O)C(O)(O)C3(O)O4)[C@H](OC(=O)c1cc(O)c(O)c(O)c1)O[C@@H]2CO` (stereo not given in full) [FUROSIN]: the inhibition in data set [1] turned out to be 38%. Moreover, the selectivity ratio in data set [2] came out at 1.4. The compound also yielded an EC50 in data set [3] of 50 µM. Besides, the inhibition at 20 µg/mL in data set [4] came out at 33%. In data set [5], it took 70 µM to reach half-maximal inhibition (IC50).
`CC1(C)CC[C@]2(C(=O)O[C@@H]3O[C@H](CO)[C@@H](O)[C@H](O)[C@H]3O)CC[C@]3(C)C(=CCC4[C@@]5(C)C[C@@H](O)[C@@H]6OC(=O)c7cc(O)c(O)c(O)c7-c7c(cc(O)c(O)c7O)C(=O)OC[C@@]6(CO)C5CC[C@]43C)C2C1` (stereo not given in full) had an inhibition in data set [1] of 17%. In addition, the selectivity ratio in data set [2] was 1.6. Also, the EC50 in data set [3] is 18 µM. Further, in data set [4], 20 µg/mL produced 47% inhibition. In data set [5], this compound came in with an IC50 of 28 µM.
As to `O=C(O[C@H]1[C@H](O)C[C@](O)(C(=O)O)C[C@H]1O)c1cc(O)c(O)c(O)c1`, the inhibition in data set [1] was determined as 0%. Besides, the selectivity ratio in data set [2] is < 0.8. Moreover, in data set [3], the EC50 was > 100 µM. The compound also registered an inhibition at 20 µg/mL in data set [4] of 0%. The compound also yielded a half-maximal inhibitory concentration (IC50) in data set [5] of 80 µM.
